“Also recorded” adds a separate entry of the source.
Columns and labels:
[1] = tested on: Rpd3L HDAC binary PPIs other than Sin3-Ume6; experiment: GPCA binary PPI inhibition, other Rpd3L HDAC PPIs; assay type: cell-based, S. cerevisiae; conditions: 10 μM
Method: GPCA (N1-N2 version) was implemented as reported in [Choi et al 2019]. HEK293T cells were seeded at 6×10^4 cells per well in 96-well, flat-bottom, cell culture microplates (Greiner Bio-One, #655083), and cultured in Dulbecco's modified Eagle's medium (DMEM) supplemented with 10% fetal calf serum at 37° C. and 5% CO2. Twenty-four hours later, cells were transfected with 100 ng of each GPCA plasmid (GPCA-N1 and GPCA-N2) using linear polyethylenimine (PEI) to co-express the protein pairs fused with complementary luciferase fragments, Luc1 and Luc2. The DNA/PEI ratio used for transfection was 1:3 (mass:mass). […] Luminescence was measured by auto-injecting 50 μL Renilla luciferase substrate (Renilla Luciferase Assay system, catalog No. E2820, Promega) per well and integrating light output for 4 s using a TriStar luminometer (Berthold).
The ability of compounds to inhibit binary PPIs in the Sin3/Rpd3L HDAC complex was tested by GPCA in a high-throughput screening format. […] The luminescence signal for each PPI was measured by averaging the different DMSO replicates, and calculating the standard deviation of DMSO values for each interaction. […] For each interaction, a particular compound was scored as a PPI inhibitor when it decreased its luminescence signal by at least three standard deviations compared to the corresponding averaged DMSO value. […]

[2] = biological target: T1, PAH2 domain of yeast Sin3 (Saccharomyces cerevisiae, UniProt P22579); experiment: Ligand-detected NMR (DLB, STD, CPMG-R2), yeast Sin3 PAH2; assay type: binding, S. cerevisiae; conditions: 300 μM compound, 10 μM protein
T1 construct: Residues 402-473 of S. cerevisiae Sin3 (PAH2 domain) were inserted into pET28PP, pMALC2XE, and pGEX6P2; made in house; host or cells: E. coli BL21 (DE3)
T1 sequence (P22579 402-473): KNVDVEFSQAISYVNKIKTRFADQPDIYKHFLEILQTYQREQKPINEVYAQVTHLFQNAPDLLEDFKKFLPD
Method: Ligand-detected NMR experiments: all results were acquired using a 3 mm tube at 25° C. on a Bruker 600 MHz Avance II system equipped with a CPPTCI cryoprobe (Bruker BioSpin Corp.). In all experiments, the concentration of E6R was fixed at 300 μM (from a stock of 25 mM in deuterated DMSO) and the concentration of the protein at 10 μM. The volume of deuterated DMSO was kept constant (1.5%) in all tested samples. Right before the experiments, the compound and protein were diluted in 1×PBS containing 0.1% deuterated dithiothreitol (DTT) to a total volume of 200 μL. Samples were diluted by 5% with D2O for magnetic field lock. Spectra were acquired for ligand only, protein only, and ligand+protein. […] STD experiments [Mayer et al 2001] were acquired with 160 scans, with protein irradiation applied for 3 s at 0 ppm and −20 ppm for the on and off resonance experiments, respectively. On and off resonance spectra were collected and stored separately. One-dimensional CPMG-R2 edited experiments [Hajduk et al 1997] were collected for samples with and without proteins using seven CPMG delays (0, 25, 50, 100, 300, 500, and 800 ms) with four scans per delay. Proton spectra used to measure DLB and chemical shift perturbations in the absence and presence of the proteins were recorded with 16 scans using a recycle delay of 3 s. […]

[3] = tested on: HDAC class I and II enzymes (live yeast cells, HeLa nuclear extract, semi-purified human HDAC1); experiment: HDAC-Glo I/II luminescence HDAC enzymatic assay; assay type: biochemical, S. cerevisiae; human; conditions: three HDAC sources
Method: The HDAC-Glo I/II screening system (Promega, cat #G6430) was adapted to measure the effect of compounds on the enzymatic activity of human and yeast HDAC sources. […] FLAG-HDAC1 was eluted from anti-FLAG beads before running the assay, using a FLAG peptide. Nuclear extracts from human HeLa cells were provided in the assay kit. HDAC enzymatic activity was measured following the manufacturer's protocol. Briefly, linear ranges of the assay were determined by measuring luminescence signals, in a serial dilution manner, for semi-purified human HDAC1, or live yeast cells, diluted in the HDAC-Glo I/II buffer. For HeLa nuclear extracts, the manufacturer provided this information in the assay kit. For the different HDAC sources, dilution factors corresponding to signals in the linear ranges were used. To test the effect of compounds (three or four replicates) on HDAC enzymatic activity, equal volumes of HDAC sources (5 μL), and inhibitors (5 μL) were added to the different wells of a white, flat bottom 384-well plate. The plate was then briefly centrifuged with a tabletop centrifuge, and gently shaken for 1 min at 700 rpm. The plate was tightly sealed to prevent evaporation, and incubated at room temperature for 1 h. […] Luminescence signals were measured using a TriStar luminometer from Berthold Technologies, with 1 s integration time per sample. […]

CC(NC(=O)c1c(O)n2ccccc2nc1=O)c1ccccc1 (racemic) [E6]
effect on all other PPIs [1]: unperturbed

C[C@@H](NC(=O)c1c(O)n2ccccc2nc1=O)c1ccccc1 [E6R, 4-hydroxy-2-oxo-N—((R)-1-phenylethyl)-3,4-dihydro-2H-pyrido[, 2-a]pyrimidine-3-carboxamide]
binding to yeast Sin3 PAH2 by NMR [2]: Sin3 PAH2 binder; also recorded: bound state

CC(/C=C/C(=O)NO)=C\[C@@H](C)C(=O)c1ccc(N(C)C)cc1 [TSA, trichostatin A]
inhibition of HDAC enzymatic activity [3]: systematically reduced HDAC activity

From US20240299393A1, “SMALL MOLECULE DISRUPTORS OF PROTEIN INTERACTIONS IN HISTONE DEACETYLASE COMPLEXES” (Dana-Farber Cancer Institute, Inc., priority 2021, published 2024)
